Measurements: patent publication US8614236B2 (University of Washington, priority 2006, dated 2013)

Legend:
humans = conditions: 250 mg tid; Balanos et al. abstract 2006; cited from earlier work
unanesthetized dogs = assay: Effect of inhaled acetazolamide in unanesthetized dogs during hypoxia (vs iv and oral); type: in vivo, dog
[1] = inhaled 750 mg after 1 h of normoxia, hypoxia 2nd h
[2] = inhaled 750 mg after 1 h of normoxia, hypoxia 3rd h
[3] = inhaled 750 mg after 1 h of normoxia, normoxia 1st h
[4] = iv 2 mg/kg bolus + 2 mg/kg/h, hypoxia 2nd h
[5] = iv 2 mg/kg bolus + 2 mg/kg/h, hypoxia 3rd h
[6] = iv 2 mg/kg bolus + 2 mg/kg/h, normoxia 1st h
[7] = oral 5 mg/kg -12 h and -1 h, hypoxia 2nd h
[8] = oral 5 mg/kg -12 h and -1 h, hypoxia 3rd h
[9] = oral 5 mg/kg -12 h and -1 h, normoxia 1st h

## CC(=O)Nc1nnc(S(N)(=O)=O)s1 [AZ, acetazolamide]
humans
  reduction of HPV in humans: 50%
Unanesthetized dogs; [1]
  BEa: -5.2 ± 0.6 mM
  CO: 2.3 ± 0.2 L/min
  CVP: 2.5 ± 0.3 cmH2O
  GFR: 3.7 ± 0.3 mL·min
  HCO3a: 17.1 ± 0.6 mM
  HR: 86 ± 6 beats/min
  MAP: 105 ± 5 mmHg
  MPAP: 15 ± 1 mmHg
  PCWP: 3.9 ± 0.4 cmH2O
  PVR: 395 ± 29 dyn s^−1 cm
  PaCO2: 26 ± 1 Torr
  PaO2: 39 ± 1 Torr
  UNaV: 8.0 ± 1.3 µmol·min
  UV: 99 ± 16 μ min^−1 kg^−1
  VE: 5.5 ± 0.5 L/min
Unanesthetized dogs; [2]
  BEa: -5.7 ± 0.7 mM
  CO: 2.5 ± 0.1 L/min
  CVP: 2.1 ± 0.2 cmH2O
  GFR: 3.6 ± 0.3 mL·min
  HCO3a: 16.4 ± 0.5 mM
  HR: 100 ± 8 beats/min
  MAP: 105 ± 5 mmHg
  MPAP: 15 ± 1 mmHg
  PCWP: 3.6 ± 0.2 cmH2O
  PVR: 388 ± 30 dyn s^−1 cm
  PaCO2: 25 ± 1 Torr
  PaO2: 36 ± 1 Torr
  UNaV: 5.1 ± 0.7 µmol·min
  UV: 81 ± 15 μ min^−1 kg^−1
  VE: 5.7 ± 0.4 L/min
Unanesthetized dogs; [3]
  BEa: -3.9 ± 0.6 mM
  CO: 2.5 ± 0.1 L/min
  CVP: 2.8 ± 0.3 cmH2O
  GFR: 4.0 ± 0.4 mL·min
  HCO3a: 20.2 ± 0.5 mM
  HR: 85 ± 5 beats/min
  MAP: 92 ± 4 mmHg
  MPAP: 13 ± 1 mmHg
  PCWP: 4.3 ± 0.4 cmH2O
  PVR: 298 ± 21 dyn s^−1 cm
  PaCO2: 36 ± 1 Torr
  PaO2: 101 ± 2 Torr
  UNaV: 0.4 ± 0.1 µmol·min
  UV: 33 ± 8 μ min^−1 kg^−1
  VE: 3.2 ± 0.2 L/min
Unanesthetized dogs; inhaled, 12% oxygen for two hours
  pulmonary vascular response to hypoxia: successful in reducing
Unanesthetized dogs; [4]
  BEa: -4.6 ± 0.4 mM
  CO: 3.0 ± 0.4 L/min
  CVP: 2.2 ± 0.3 cmH2O
  GFR: 3.4 ± 0.3 mL·min
  HCO3a: 18.5 ± 0.5 mM
  HR: 103 ± 6 beats/min
  MAP: 102 ± 8 mmHg
  MPAP: 15 ± 1 mmHg
  PCWP: 3.5 ± 0.3 cmH2O
  PVR: 312 ± 36 dyn s^−1 cm
  PaCO2: 30 ± 1 Torr
  PaO2: 37 ± 1 Torr
  UNaV: 4.0 ± 0.6 µmol·min
  UV: 135 ± 27 μ min^−1 kg^−1
  VE: 6.5 ± 0.5 L/min
Unanesthetized dogs; [5]
  BEa: -6.1 ± 0.6 mM
  CO: 2.9 ± 0.5 L/min
  CVP: 2.3 ± 0.4 cmH2O
  GFR: 3.8 ± 0.3 mL·min
  HCO3a: 17.1 ± 0.5 mM
  HR: 106 ± 7 beats/min
  MAP: 103 ± 7 mmHg
  MPAP: 14 ± 1 mmHg
  PCWP: 3.7 ± 0.3 cmH2O
  PVR: 305 ± 26 dyn s^−1 cm
  PaCO2: 27 ± 1 Torr
  PaO2: 38 ± 1 Torr
  UNaV: 5.4 ± 1.2 µmol·min
  UV: 68 ± 12 μ min^−1 kg^−1
  VE: 6.9 ± 0.5 L/min
Unanesthetized dogs; [6]
  BEa: -4.0 ± 0.5 mM
  CO: 2.6 ± 0.2 L/min
  CVP: 1.8 ± 0.3 cmH2O
  GFR: 3.5 ± 0.3 mL·min
  HCO3a: 20.2 ± 0.4 mM
  HR: 74 ± 4 beats/min
  MAP: 95 ± 5 mmHg
  MPAP: 13 ± 1 mmHg
  PCWP: 3.8 ± 0.5 cmH2O
  PVR: 283 ± 37 dyn s^−1 cm
  PaCO2: 34 ± 1 Torr
  PaO2: 107 ± 3 Torr
  UNaV: 3.8 ± 0.6 µmol·min
  UV: 102 ± 12 μ min^−1 kg^−1
  VE: 4.1 ± 0.4 L/min
Unanesthetized dogs; [7]
  BEa: -6.3 ± 0.6 mM
  CO: 2.7 ± 0.2 L/min
  CVP: 1.9 ± 0.2 cmH2O
  GFR: 3.3 ± 0.2 mL·min
  HCO3a: 16.7 ± 0.6 mM
  HR: 109 ± 5 beats/min
  MAP: 106 ± 6 mmHg
  MPAP: 17 ± 1 mmHg
  PCWP: 3.5 ± 0.3 cmH2O
  PVR: 375 ± 33 dyn s^−1 cm
  PaCO2: 28 ± 1 Torr
  PaO2: 37 ± 1 Torr
  UNaV: 1.7 ± 0.5 µmol·min
  UV: 84 ± 15 μ min^−1 kg^−1
  VE: 6.6 ± 0.4 L/min
Unanesthetized dogs; [8]
  BEa: -6.4 ± 0.4 mM
  CO: 2.3 ± 0.1 L/min
  CVP: 1.9 ± 0.2 cmH2O
  GFR: 3.3 ± 0.2 mL·min
  HCO3a: 16.1 ± 0.4 mM
  HR: 102 ± 7 beats/min
  MAP: 107 ± 6 mmHg
  MPAP: 17 ± 1 mmHg
  PCWP: 3.5 ± 0.3 cmH2O
  PVR: 431 ± 45 dyn s^−1 cm
  PaCO2: 26 ± 1 Torr
  PaO2: 37 ± 1 Torr
  UNaV: 1.5 ± 0.4 µmol·min
  UV: 55 ± 8 μ min^−1 kg^−1
  VE: 6.3 ± 0.2 L/min
Unanesthetized dogs; [9]
  BEa: -6.5 ± 0.3 mM
  CO: 2.3 ± 0.2 L/min
  CVP: 2.3 ± 0.3 cmH2O
  GFR: 3.0 ± 0.2 mL·min
  HCO3a: 17.6 ± 0.3 mM
  HR: 85 ± 3 beats/min
  MAP: 95 ± 3 mmHg
  MPAP: 12 ± 1 mmHg
  PCWP: 3.9 ± 0.3 cmH2O
  PVR: 298 ± 27 dyn s^−1 cm
  PaCO2: 32 ± 1 Torr
  PaO2: 108 ± 2 Torr
  UNaV: 1.4 ± 0.6 µmol·min
  UV: 50 ± 9 μ min^−1 kg^−1
  VE: 4.6 ± 0.3 L/min
